The values that follow come from paper PMC11887385 (Virology Journal, 2025).

Some results are limits rather than exact numbers.

Data set [1] relates to HIV-1NL4-3. The data set can be described thus: Antiviral activity, TZM-bl reporter cells, F-Luc. It is filed as cell-based.
Data set [2] relates to HIV-1NL4-3. Put plainly: Time-of-addition. The conditions noted are these: TZM-bl, MOI 0.5, read at 48 h. The class given is cell-based.
In data set [3] the test system is HIV-1 7396 (41L/67N/69N/70R/215F). The data set can be described thus: Antiviral activity on resistant variant, TZM-bl F-Luc. The conditions noted are these: Human immunodeficiency virus 1, TZM-bl. It is filed as cell-based.
For data set [4], the system named is HIV-1 7406 (190C; 41L/69S*/74 V/184 V/210W/215Y). Described as above. The conditions noted are these: Human immunodeficiency virus 1, TZM-bl. It is filed as cell-based.
The subject of data set [5] is HIV-1 7407 (103N; 70R/115F). The data set is described as above. The class given is cell-based. The conditions noted are these: Human immunodeficiency virus 1, TZM-bl.
The subject of data set [6] is HIV-1 12,227 (101P/103N; 41L/215Y). The data set is described as above. The class given is cell-based. The conditions noted are these: Human immunodeficiency virus 1, TZM-bl.
Data set [7] relates to HIV-1 12,231 (103N/179F/181C; 41L/215F). The data set is described as above. It is filed as cell-based. The conditions noted are these: Human immunodeficiency virus 1, TZM-bl.
In data set [8] the test system is HIV-1 12,241 (101E/138G/190S). The data set is described as above. The conditions noted are these: Human immunodeficiency virus 1, TZM-bl. The class given is cell-based.
Data set [9] has as its system HIV-1 12,243 (100I/179D/230L; 41L/67G/74I). Described as above. It is filed as cell-based. The conditions noted are these: Human immunodeficiency virus 1, TZM-bl.
The test system of another data set is HIV-1 L100I. Put plainly: Antiviral activity on single RT mutant, TZM-bl F-Luc. Particulars: Human immunodeficiency virus 1, TZM-bl. It is filed as cell-based.
A further data set concerns HIV-1 K101P. The description is as above. It is filed as cell-based. The conditions noted are these: Human immunodeficiency virus 1, TZM-bl.
Another data set relates to HIV-1 K103N. The description is as above. The class given is cell-based. The conditions noted are these: Human immunodeficiency virus 1, TZM-bl.
For the next data set, the system named is HIV-1 G190A. Described as above. The class given is cell-based. The conditions noted are these: Human immunodeficiency virus 1, TZM-bl.
In another data set the test system is HIV-1 G190C. The data set is described as above. The conditions noted are these: Human immunodeficiency virus 1, TZM-bl. The class given is cell-based.
A further data set deals with HIV-1 G190S. The description is as above. It is filed as cell-based. The conditions noted are these: Human immunodeficiency virus 1, TZM-bl.
Data set [10] has as its system HIV-1JRCSF. Put plainly: Antiviral activity, TZM-bl reporter cells, F-Luc. It is filed as cell-based. The conditions noted are these: Human immunodeficiency virus 1, TZM-bl, read-out: EC50 (1:5 dilution).
In the next data set the test system is HIV-1 89.6. Put plainly: Antiviral activity, TZM-bl reporter cells, F-Luc. The class given is cell-based. The conditions noted are these: Human immunodeficiency virus 1, TZM-bl, read-out: EC50 (1:5 dilution).
In data set [11] the test system is HIV-1NL4-3. Put plainly: Viral replication in A3.01 T cells, p24 […]. The class given is cell-based. Particulars: Human immunodeficiency virus 1, NL43, T-cell, read-out: EC50 (1:5 dilution).
The test system of data set [12] is HIV-1NL4-3. Put plainly: Viral replication in PBMCs, p24 […]. Particulars: Human immunodeficiency virus 1, NL43, PBMC, read-out: EC50 (1:5 dilution). The class given is cell-based.
In data set [13] the test system is HIV-1JRCSF. Put plainly: Viral replication in PBMCs, p24 […]. The class given is cell-based. The conditions noted are these: Human immunodeficiency virus 1, PBMC, read-out: EC50 (1:5 dilution).
The nature of data set [14]: Cell viability test. It is filed as cell-based. Particulars: human, TZM-bl cells, CC50 (1:5 dilution).
A further data set concerns TZM-bl cells. The data set can be described thus: Cell viability test. The class given is cell-based. The conditions noted are these: 48 h.
Data set [15] can be described thus: Cell viability test. The conditions noted are these: human, A3.01 cells. The class given is cell-based, human.
A further data set concerns A3.01 cells. The data set can be described thus: Cell viability test. It is filed as cell-based, human. Particulars: A3.01.
Data set [16] is described as follows: Cell viability test. The conditions noted are these: human, PBMCs. It is filed as cell-based.
Another data set concerns PBMCs. The data set can be described thus: Cell viability test. It is filed as cell-based.
The subject of data set [17] is HIV-1NL4-3-IRES-GFP proviral DNA. It is filed as cell-based. The conditions noted are these: HEK293T, 48 h.
Another data set concerns the target recombinant HIV-1 RTase (Human immunodeficiency virus type 1 group M subtype B, UniProt P04585). Put plainly: In vitro RTase assay. The class given is biochemical. The conditions noted are these: IC50 against RTase, 0.5 unit RTase, 1 h, 24 °C.
The target in a further data set is HIV-1 integrase (Human immunodeficiency virus type 1 group M subtype B, UniProt P04585). Put plainly: HIV-1 integrase assay kit. The class given is biochemical. The conditions noted are these: 10 µM.
Data set [18] concerns HIV-1NL4-3 early and late RT products. The data set can be described thus: HIV-1 reverse transcripts in infected A3.01 cells, RT-qPCR. It is filed as cell-based. The conditions noted are these: A3.01, 1 μM, 6 h.
Data set [19] has as its system HIV-1NL4-3 integrated proviral DNA. The data set can be described thus: Integrated proviral DNA in infected A3.01 cells, Alu-PCR. It is filed as cell-based. The conditions noted are these: A3.01, 1 μM.
The subject of data set [20] is Tat-mediated viral transcription of LTR. The data set can be described thus: Tat-mediated LTR transcription in bl-DTR cells. It is filed as cell-based, HIV-1. Particulars: doxycycline, 24 h.
Where [21] appears, read: Human immunodeficiency virus 1, TZM-bl, 48 h.
Setting [22] is: Human immunodeficiency virus 1, TZM-bl.
Setting [23] is: Human immunodeficiency virus 1, NL43, TZM-bl, read-out: EC50 (1:5 dilution).

Take `Cc1cn([C@H]2C[C@H](N=[N+]=[N-])[C@@H](CO)O2)c(=O)[nH]c1=O` [AZT, zidovudine]: the EC50 with HIV-1NL4-3 [1] (setting [21]) is 290 ± 60 nM; in [3] it was 3830 ± 1210 nM; in [4], 15100 ± 2160 nM; in data set [5] it was above 50000 nM; in data set [6], 1000 ± 130 nM; in data set [7], 630 ± 190 nM. The EC50 in [8] amounted to 80 ± 30 nM; in data set [9], 290 ± 10 nM; in the data set with HIV-1 L100I, 70 ± 10 nM; in the data set on HIV-1 K101P it was 40 nM; in the data set with HIV-1 K103N it was 110 ± 10 nM; in the data set on HIV-1 G190A it was 110 ± 10 nM. For the same molecule, the concentration for a half-maximal effect (EC50) worked out at 50 ± 10 nM in the data set on HIV-1 G190C and 80 ± 10 nM in the data set on HIV-1 G190S. For the same molecule, the “time postinfection of addition at which the inhibitory effect disappeared” value in the data set with HIV-1NL4-3 [2] was 2 h.
In the case of `Cc1nn(C(C)c2nnc(Nc3ccn(Cc4ccccc4)n3)s2)c(C)c1Br` (centres unmarked) [BPPT, N-(1-benzyl-1H-pyrazol-3-yl)-5-[1-(4-bromo-3,5-dimethyl-1H-pyrazol-1-yl)ethyl]-1,3,4-thiadiazol-2-amine], the EC50 was found to be 60 nM in the data set on HIV-1NL4-3 [1] (setting [22]); 160 ± 10 nM in the data set on HIV-1JRCSF [10]; 90 nM in the data set with HIV-1 89.6; 160 ± 20 nM in the data set on HIV-1NL4-3 [11]; 80 ± 10 nM in the data set on HIV-1NL4-3 [12]; 40 ± 30 nM in the data set with HIV-1JRCSF [13]. The EC50 is 350 ± 40 nM in [4]; 19700 ± 1600 nM in data set [5]; above 50000 nM in data set [6]; above 50000 nM in data set [7]; 4570 ± 2300 nM in data set [8]; above 50000 nM in data set [9]. Besides, the EC50 turned out to be 3500 ± 650 nM with HIV-1 L100I; 1710 ± 30 nM with HIV-1 K101P; 880 ± 120 nM in the data set with HIV-1 K103N; 70 nM in the data set with HIV-1 G190A; 290 ± 30 nM in the data set with HIV-1 G190C; 280 ± 50 nM in the data set with HIV-1 G190S. Besides, the CC50 in “Cell viability test [14]”, in the data set “Cell viability test [15]” and in the data set “Cell viability test [16]” was above 50000 nM throughout. Moreover, the “no (severe) cytotoxicity up to” value with TZM-bl cells is reported as above 250 µM. Further, the “no cytotoxicity up to” value in the data set on A3.01 cells and with PBMCs was above 50 µM in each case. Besides, in data set [17], the “GFP signal and level of p24 in the supernatant from transfected cells” value is “not inhibited”. Besides, at recombinant HIV-1 RTase, the IC50 was determined as 140 nM. In addition, at HIV-1 integrase, the integrase activity result is recorded as “did not affect”. Moreover, in the data set with HIV-1NL4-3 [2], the “time postinfection of addition at which the inhibitory effect disappeared” value was 6 h. In addition, in data set [18], the “synthesis of viral cDNA, early and late stages of RT” value is “greatly inhibited”. Besides, the “integrated proviral DNA” value in [19] is recorded as “low level of integrated proviral DNA”. Also, the “Tat-mediated viral transcription of LTR” value in data set [20] is given as “did not inhibit”.
For the molecule `C[C@@H]1CCO[C@H]2Cn3cc(C(=O)NCc4ccc(F)cc4F)c(=O)c(O)c3C(=O)N12` [DTG, Dolutegravir], the “time postinfection of addition at which the inhibitory effect disappeared” value in the data set with HIV-1NL4-3 [2] stood at 8 h.
For `O=C1Nc2ccc(Cl)cc2[C@@](C#CC2CC2)(C(F)(F)F)O1` [EFV, efavirenz], the EC50 is 1 nM in the data set with HIV-1NL4-3 [1] (setting [23]); 1 nM in the data set with HIV-1NL4-3 [1] (setting [21]); 1 nM in data set [3]; 350 ± 30 nM in data set [5]; 180 ± 220 nM in data set [7]; 20 nM with HIV-1 L100I. For the same molecule, the EC50 with HIV-1 K101P came out at 20 nM; in the data set on HIV-1 K103N, 40 ± 10 nM; with HIV-1 G190A, 10 nM; with HIV-1 G190C it was 390 ± 90 nM; in the data set on HIV-1 G190S it was 120 ± 10 nM. This molecule registered a CC50 in “Cell viability test [14]” of 25900 nM.
On to `Cc1ccnc2c1NC(=O)c1cccnc1N2C1CC1` [NVP, nevirapine], for which the EC50 was 80 ± 180 nM in the data set with HIV-1NL4-3 [1] (setting [23]); 80 ± 20 nM in the data set with HIV-1NL4-3 [1] (setting [21]); 350 ± 70 nM in [3]; above 50000 nM in data set [4]; above 50000 nM in data set [5]; above 50000 nM in data set [6]. Moreover, the EC50 in data set [7] is above 50000 nM; in [8], above 50000 nM; in data set [9], 21400 ± 2210 nM; in the data set on HIV-1 L100I it was 180 ± 40 nM; with HIV-1 K101P, 8310 ± 600 nM; in the data set with HIV-1 K103N, 4550 ± 270 nM. Moreover, the EC50 in the data set with HIV-1 G190A came to 15700 ± 2730 nM; in the data set with HIV-1 G190C it was 23800 ± 3310 nM; in the data set with HIV-1 G190S, 32700 ± 4490 nM. The molecule further had a CC50 in the data set “Cell viability test [14]” above 50000 nM.
In the case of `Cc1nnc(C(=O)NC(C)(C)c2nc(C(=O)NCc3ccc(F)cc3)c(O)c(=O)n2C)o1` [RAL, raltegravir], the “time postinfection of addition at which the inhibitory effect disappeared” value with HIV-1NL4-3 [2] came to 8 h.
In the data set with HIV-1NL4-3 [1] (setting [22]), `Cc1cc(/C=C/C#N)cc(C)c1Nc1ccnc(Nc2ccc(C#N)cc2)n1` [RPV, rilpivirine] returned an EC50 of 0.7 nM.
As to `CC(C)[C@]12O[C@H]1[C@@H]1O[C@]13[C@]1(O[C@H]1C[C@H]1C4=C(CC[C@@]13C)C(=O)OC4)[C@@H]2O` [TPL, triptolide], the “time postinfection of addition at which the inhibitory effect disappeared” value in the data set with HIV-1NL4-3 [2] was 24 h.
In the data set with HIV-1NL4-3 [1] (setting [21]), `O=C(Nc1ccc(S(=O)(=O)O)c2ccccc12)c1ccc(=O)oc1` [compound 1, 4-(2-oxo-2H-pyran-5-carboxamido)naphthalene-1-sulfonic acid] displayed an EC50 of 8480 nM.
With `CCc1cc(=O)oc2cc(OC(CC)C(=O)c3ccccc3)ccc12` (centres unmarked) [compound 2, 4-ethyl-7-((1-oxo-1-phenylbutan-2-yl)oxy)-2H-chromen-2-one], the response in the data set with HIV-1NL4-3 [1] (setting [21]) was half-maximal at 4890 nM (EC50).
Turning to `CC(C)(C)c1cc([N+](=O)[O-])cc(C=O)c1O` [compound 3, 3-tert-butyl-2-hydroxy-5-nitrobenzaldehyde], a half-maximal response in the data set on HIV-1NL4-3 [1] (setting [21]) (EC50) required 1470 nM.
On the same count and under the same terms, then `COc1cccc(C=NNC(=S)NN)c1OC` [compound 4, 1-amino-3-[(2,3-dimethoxyphenyl)methylideneamino]thiourea], with 6390 nM.
In the case of Enfuvirtide [T20], the “time postinfection of addition at which the inhibitory effect disappeared” value in the data set on HIV-1NL4-3 [2] was 1 h.
